This note sets out measurements from paper PMC12040169 (PLOS Biology, 2025).

Series [1] can be described thus: in vitro. As to conditions: human, hela cells, % viability.
Series [2] can be described thus: in vitro. On the set-up: Viability of infected HeLa host cells, resazurin conversion, bulk resorufin fluorescence relative to DMSO. To be noted: human, hela cells; bulk resorufin, mean of 2.
Series [3] relates to T1, CTL2-GFP (C. trachomatis L2/434/Bu, GFP-expressing).
T1 construct: L2/434/Bu, GFP-expressing
Nature of the series: microbe, parasite or virus in culture. On the set-up: Intracellular C. trachomatis growth in HeLa cells, bulk GFP fluorescence relative to DMSO. To be noted: Chlamydia trachomatis, HeLa, 28.5 h; bulk GFP, mean of 2; read-out: % of control remaining. The method, then: MICs were calculated as described above.

Series [4] concerns T2, C. trachomatis L2/434/Bu expressing GFP (CTL2-GFP).
T2 construct: L2/434/Bu GFP intracellular growth in HeLa cells
In words: microbe, parasite or virus in culture. Further details: C. trachomatis total inclusion area by high-content imaging, normalised to DMSO. To be noted: Chlamydia trachomatis, HeLa, 28.5 h; total inclusion area; read-out: % of control remaining. In outline:
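Read-out combines bulk fluorescence and imaging: GFP tracks chlamydial growth, resorufin tracks host cell viability. Plates were then fixed and Hoechst-stained so inclusions and nuclei could be imaged and counted per well.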

Each structure is given as a SMILES string.

The viability is a read-out of living cells in per cent, often relative to untreated cells. On to `O=C(c1ccc(-c2ccc(F)cc2)o1)N1C[C@H]2CC[C@](O)(c3ccc(F)cc3)[C@H]2C1` [CBK286415], for which, in series [1], the viability at 28.5 h, 10 µM was 94.1%. Further, in series [2], the viability at 28.5 h, 1 µM came out at 91.9%; the viability at 28.5 h, 5 µM is 86.5%; the viability at 28.5 h, 10 µM was 91.6%. In series [3], the activity at 1 µM is 6.79%, the activity at 5 µM stood at 7.93% and the activity at 10 µM came to 15.1%. Also, in series [4], the activity at 1 µM is 0.419%, the activity at 5 µM stood at 0.168% and the activity at 10 µM is 0.106%.

Consider `CCc1nnc(NS(=O)(=O)c2ccc(N/C=C3\C(=O)N(c4ccc(C)cc4)N=C3C)cc2)s1` [CBK262395], for which the viability at 28.5 h, 10 µM in series [1] amounted to 100%. In addition, in series [2], the viability at 28.5 h, 1 µM is 96%; the viability at 28.5 h, 5 µM came to 101%; the viability at 28.5 h, 10 µM was 91.7%. In addition, in series [3], the activity at 1 µM turned out to be 87%, the activity at 5 µM worked out at 17.9% and the activity at 10 µM was 18.6%. In addition, in series [4], the activity at 1 µM is 116%, the activity at 5 µM came out at 36.9% and the activity at 10 µM was 35%.

For `O=[N+]([O-])c1ccc2[nH]c3c(c2c1)CCCC3NC1CCN(CCc2ccccc2)CC1` (stereo not shown) [CBK262874], the viability at 28.5 h, 10 µM in series [1] came to 77.1%. In series [2], the viability at 28.5 h, 1 µM worked out at 91.5%; the viability at 28.5 h, 5 µM came out at 84.8%; the viability at 28.5 h, 10 µM turned out to be 76.1%. In series [3], the activity at 1 µM worked out at 58.5%, the activity at 5 µM was 25.9% and the activity at 10 µM came to 16.1%. In series [4], the activity at 1 µM stood at 60.6%, the activity at 5 µM came to 15.1% and the activity at 10 µM came to 3.02%.

In the case of `OCCn1ncc2c(NCc3cccc(Cn4ccnc4)c3)ncnc21` [CBK304184], the viability at 28.5 h, 10 µM in series [1] was 90.3%. In series [2], the viability at 28.5 h, 1 µM is 96.1%; the viability at 28.5 h, 5 µM turned out to be 92%; the viability at 28.5 h, 10 µM was 92.4%. Further, in series [3], the activity at 1 µM is 144%, the activity at 5 µM came out at 158% and the activity at 10 µM came to 128%. In series [4], the activity at 1 µM was found to be 81%, the activity at 5 µM came to 101% and the activity at 10 µM is 58.7%.

Regarding `CCCn1c(NC(=O)C(C)Oc2ccc(Cl)cc2Cl)nc2ccccc21` (stereo not shown) [CBK296979], the viability at 28.5 h, 10 µM in series [1] stood at 108%. Also, in series [2], the viability at 28.5 h, 1 µM was 88%; the viability at 28.5 h, 5 µM amounted to 93.1%; the viability at 28.5 h, 10 µM turned out to be 89.7%. Moreover, in series [3], the activity at 1 µM is 129%, the activity at 5 µM was determined as 103% and the activity at 10 µM stood at 54.1%. Besides, in series [4], the activity at 1 µM stood at 137%, the activity at 5 µM was 94.8% and the activity at 10 µM is 58.2%.

`OCC1(CNc2ncc(F)c(N3CCCC3)n2)CCOCC1` [CBK306647]: in series [1], the viability at 28.5 h, 10 µM was 87.3%. For the same molecule, in series [2], the viability at 28.5 h, 1 µM turned out to be 100%; the viability at 28.5 h, 5 µM was found to be 93.8%; the viability at 28.5 h, 10 µM turned out to be 95.5%. Further, in series [3], the activity at 1 µM worked out at 108%, the activity at 5 µM came to 64.2% and the activity at 10 µM was found to be 59%. Also, in series [4], the activity at 1 µM was 130%, the activity at 5 µM amounted to 60.9% and the activity at 10 µM came to 47.1%.

With `N#CCCCN1CCC(Oc2cncc(OCc3ccc(Cl)c(Cl)c3)n2)C1` (stereo not shown) [CBK084436], in series [1], the viability at 28.5 h, 10 µM is 96.1%. Further, in series [2], the viability at 28.5 h, 1 µM amounted to 95.4%; the viability at 28.5 h, 5 µM was found to be 102%; the viability at 28.5 h, 10 µM was 99.4%. Further, in series [3], the activity at 1 µM was found to be 127%, the activity at 5 µM amounted to 81.2% and the activity at 10 µM came to 52.7%. In series [4], the activity at 1 µM stood at 118%, the activity at 5 µM amounted to 74.4% and the activity at 10 µM was 32.6%.

As to `Cc1cc(NS(=O)(=O)c2ccc(Nc3nc(-c4ccccn4)cs3)cc2)no1` [CBK263302B], the viability at 28.5 h, 10 µM in series [1] came to 93.1%. In series [2], the viability at 28.5 h, 1 µM was 90.8%; the viability at 28.5 h, 5 µM is 93.6%; the viability at 28.5 h, 10 µM was 99.8%. Further, in series [3], the activity at 1 µM stood at 105%, the activity at 5 µM was 88.6% and the activity at 10 µM stood at 49.5%. Moreover, in series [4], the activity at 1 µM was 76.5%, the activity at 5 µM was found to be 93.3% and the activity at 10 µM was 56.4%.

Take `Cc1ccc2[nH]c3c(c2c1)CCOC31CCN(Cc2ccccc2-c2ccccc2)CC1` [CBK039915]: in series [2], the viability at 28.5 h, 1 µM stood at 99.1%; the viability at 28.5 h, 5 µM is 93.6%; the viability at 28.5 h, 10 µM is 100%. Also, in series [3], the activity at 1 µM is 69.3%, the activity at 5 µM is 33.8% and the activity at 10 µM stood at 27.9%. Besides, in series [4], the activity at 1 µM stood at 27.9%, the activity at 5 µM is 15.9% and the activity at 10 µM amounted to 7.2%.

For the molecule `CN(C(=O)c1ccc(Cl)c(Cl)c1)[C@H]1CCC[C@H]1N1CCCC1` [CBK003411C], in series [2], the viability at 28.5 h, 1 µM worked out at 112%; the viability at 28.5 h, 5 µM worked out at 111%; the viability at 28.5 h, 10 µM was 118%. In series [3], the activity at 1 µM worked out at 32.2%, the activity at 5 µM turned out to be 0.223% and the activity at 10 µM stood at 1.01%. In addition, in series [4], the activity at 1 µM worked out at 52.8%, the activity at 5 µM was 1.24% and the activity at 10 µM is 0.29%.

With `c1c(C2CC2)[nH]c2nc(N3CCCC3)nc(N3CCCC3)c12` [CBK016707G], in series [2], the viability at 28.5 h, 1 µM is 99.1%; the viability at 28.5 h, 5 µM came to 96.9%; the viability at 28.5 h, 10 µM stood at 86.9%. Moreover, in series [3], the activity at 1 µM is 3.94%, the activity at 5 µM amounted to 11.1% and the activity at 10 µM came out at 20.9%. Further, in series [4], the activity at 1 µM turned out to be 0.765%, the activity at 5 µM amounted to 0.748% and the activity at 10 µM came out at 3.52%.

Turning to `CC(C)(CN)CN(Cc1ccccc1Br)C(=O)NC(c1ccccc1)c1ccccc1` [CBK002488C], in series [2], the viability at 28.5 h, 1 µM came to 92.2%; the viability at 28.5 h, 5 µM worked out at 93.1%; the viability at 28.5 h, 10 µM was 90%. In series [3], the activity at 1 µM came out at 150%, the activity at 5 µM was found to be 114% and the activity at 10 µM stood at 85.7%. Besides, in series [4], the activity at 1 µM is 112%, the activity at 5 µM stood at 116% and the activity at 10 µM amounted to 38.2%.

On to `COCCCNS(=O)(=O)c1ccc(-n2ncc(Cl)c(Cl)c2=O)cc1` [CBK305039], for which, in series [2], the viability at 28.5 h, 1 µM was determined as 97.7%; the viability at 28.5 h, 5 µM came to 32.2%; the viability at 28.5 h, 10 µM is 0%. In series [3], the activity at 1 µM is 78.8%, the activity at 5 µM stood at 24.5% and the activity at 10 µM came to 21.2%. Also, in series [4], the activity at 1 µM is 73.2% and the activity at 5 µM is 2.13%.

In the case of `N=C(N)SCc1csc(-c2ccc(Br)cc2)n1` [CBK017064C], in series [2], the viability at 28.5 h, 1 µM turned out to be 90.5%; the viability at 28.5 h, 5 µM came out at 88.9%; the viability at 28.5 h, 10 µM is 91.1%. Besides, in series [3], the activity at 1 µM came to 126%, the activity at 5 µM was determined as 97.9% and the activity at 10 µM was found to be 33.1%. In series [4], the activity at 1 µM amounted to 80.7%, the activity at 5 µM worked out at 91.3% and the activity at 10 µM was 25.6%.

For the molecule `N=C(N)Nc1nc(-c2ccccc2)c2cc(F)ccc2n1` [CBK267350], in series [2], the viability at 28.5 h, 1 µM came to 107%; the viability at 28.5 h, 5 µM is 111%; the viability at 28.5 h, 10 µM was 105%. In series [3], the activity at 1 µM was 93.6%, the activity at 5 µM stood at 64.3% and the activity at 10 µM is 16.8%. Also, in series [4], the activity at 1 µM was 90.4%, the activity at 5 µM was found to be 64.6% and the activity at 10 µM was found to be 12.8%.

Consider `COc1ccc(S(=O)(=O)Nc2ccc(S(=O)(=O)Nc3nccs3)cc2)c([N+](=O)[O-])c1` [CBK266801], for which, in series [2], the viability at 28.5 h, 1 µM was 110%; the viability at 28.5 h, 5 µM was 123%; the viability at 28.5 h, 10 µM is 119%. In series [3], the activity at 1 µM stood at 13.9%, the activity at 5 µM stood at 4.96% and the activity at 10 µM turned out to be 0%. Further, in series [4], the activity at 1 µM was found to be 26.3%, the activity at 5 µM came to 5.01% and the activity at 10 µM amounted to 1.27%.

As to `COc1cccc(CNc2ccc(N3CCOCC3)cc2)c1OCc1ccccc1F` [CBK074406], in series [2], the viability at 28.5 h, 1 µM is 86.4%; the viability at 28.5 h, 5 µM was determined as 83.8%; the viability at 28.5 h, 10 µM was 90.9%. Further, in series [3], the activity at 1 µM is 135%, the activity at 5 µM is 97.1% and the activity at 10 µM turned out to be 65.4%. Moreover, in series [4], the activity at 1 µM was 130%, the activity at 5 µM is 63.6% and the activity at 10 µM is 41.5%.

`CCOc1ccc2nc(NC(=N)N)nc(C)c2c1` [CBK010384C]: in series [2], the viability at 28.5 h, 1 µM is 90.4%; the viability at 28.5 h, 5 µM turned out to be 102%; the viability at 28.5 h, 10 µM was 94.8%. In series [3], the activity at 1 µM is 121%, the activity at 5 µM worked out at 24.6% and the activity at 10 µM was found to be 4.24%. In series [4], the activity at 1 µM is 87%, the activity at 5 µM worked out at 20.7% and the activity at 10 µM was determined as 1.75%.
